Results as given in patent US20150086622A1, “GROWTH ENHANCEMENT OF INFANTS” (NUTRINIA LTD., priority 2012, published 2015).
Entries after “also recorded” stand apart in the source; their conditions may differ.

How the values were obtained:
low birth weight infants [1] = assay: Phase I open label single group clinical study of insulin enriched formula: growth in weight, length, head circumference; format: in vivo, human; settings: at 6 months; CDC growth tables
Method: The effect of insulin enriched formula on low birth weight full term infant was examined. Inclusion criteria for participating in the study included: healthy infants 34-42 weeks gestation (“term born infants”); birth weight above 1,650 g, typically between 1750 gram and 2500 gram; no major congenital malformation or any other illness sign; chronological age under 240 hours; mother is not willing to breastfeed the baby during the study period and signed an informed consent. Infant with a high index of suspect for infection before enrolment, maternal diabetes, and medications given until day 1 of the study were excluded. Observed results regarding weight, length, and head circumference were compared to expected values which were obtained from the CDC growth reference tables (ibid) according to the infants' gender, gestational age and percentile of birth weight (BW). Interpolation or extrapolation was used to determine the percentile and the expected gain of each infant. The expected values are specific to the percentile measure at birth. The percentile of each BW was evaluated according to the gender, gestational age and multiplicity (singleton or twin) using published tables for Israel (Dolberg S. et al., IMAJ, 7, 2005, 311-314). No such data were available with respect to the percentiles of length and of head circumference. It was therefore assumed that the BW percentile of each infant is applicable to each of the other two growth measures. […] The infants' gender, family origin, gestational age at birth, maternal medications, maternal age, chronic diseases in the family and the infant's condition upon enrollment were recorded. […] During the study, the infant's weight, length, head circumference, glucose blood levels, blood count, blood fat, blood chemistry, blood amino acids, insulin antibodies, and serum levels were recorder, as well as food consumption, vomiting, regurgitation and stools frequency were measured and assessed. The possible effect of the insulin enriched formula on growth was evaluated with respect to gain in weight, length, and head circumference. […]

low birth weight infants [2] = assay: Clinical studies: safety / side effects of insulin enriched formula; format: in vivo, human
Method: Phase I, multi center, non-randomized, open label, single group study to assess the safety of insulin enriched formula on low birth weight infants was conducted in Rabin Medical Center and Laniado Hospital, Israel. The possible effect of the insulin enriched formula on growth of low birth weight infants, born on term (at least 34 weeks of gestation) was also examined in this study. Parents of eligible infants, who met the study criteria, were invited to participate in the study following signing on Informed Consent Form (ICF). From study day 1, the infants received the insulin enriched infant formula ([…], Israel). They were fed with the formula for the first 4 months without the addition of complementary feed. The infants' gender, family origin, gestational age at birth, maternal medications, maternal age, chronic diseases in the family and the infant's condition upon enrollment were recorded. […] At study day 1 and 2, and at 1, 4, 8, 12, 16 and 24 weeks the parents of the infant were asked to come to the neonatal ward for follow up examinations. During the study, the infant's weight, length, head circumference, glucose blood levels, blood count, blood fat, blood chemistry, blood amino acids, insulin antibodies, and serum levels were recorder, as well as food consumption, vomiting, regurgitation and stools frequency were measured and assessed. Infants were to be withdrawn from the study if any serious adverse event or any deterioration in the infant clinical condition had occurred. They were followed up on possible side effects and efficacy measures until 6 months of age. […] A multicenter, double blind, randomized study for studying the effect of the insulin enriched infant formula on the growth of low weight infants was planned to take place in Israel in 2005 (headed by Prof Sirota, Schneider Hospital). Due to low recruitment rate (only 8 premature infants), the study was terminated.

preterm infants [3] = assay: Randomized placebo controlled study: gastrointestinal maturation (days to complete enteral feeding); format: in vivo, human; settings: all infants; control 7.9; P-value=0.2085
Method: A Multi-center, two arms, randomized, double-blinded placebo controlled study was conducted to evaluate the effect of insulin-enriched infant formula on preterm infants. In this study, the population of infants included also babies having extremely low birth weight (inclusion criteria included babies weighing over 750 grams). The insulin was given at a concentration range which is mimicking colostrums concentration (at 400 μU/ml. The study primary goal was to determine whether insulin supplement to the basic preterm oral formula enhances gastrointestinal maturation. The gastrointestinal maturation was evaluated by the ability of the premature infants to achieve complete enteral feeds (150-160 ml/kg/day). The infants were hospitalized in the neonatal hospital ward in the same manner as preterm infants whose parents elected not to participate in the study. The infants were randomly assigned to one of two treatment groups: the study product-InsuMealTM as a test group and Placebo supplement as a control group. The parents, the medical team treating the infants and the study monitor were blinded to the treatment arm. From study day 1, the infants in the test group received the InsuMealTM additive mixed with the ready to feed (RTF) preterm […] formula and the control group received a placebo supplement mixed with the same RTF preterm […] formula. […]

preterm infants [4] = assay: Randomized placebo controlled study: number of hospitalization days to discharge; format: in vivo, human
Method: A Multi-center, two arms, randomized, double-blinded placebo controlled study was conducted to evaluate the effect of insulin-enriched infant formula on preterm infants. In this study, the population of infants included also babies having extremely low birth weight (inclusion criteria included babies weighing over 750 grams). The insulin was given at a concentration range which is mimicking colostrums concentration (at 400 μU/ml. The study primary goal was to determine whether insulin supplement to the basic preterm oral formula enhances gastrointestinal maturation. The gastrointestinal maturation was evaluated by the ability of the premature infants to achieve complete enteral feeds (150-160 ml/kg/day). The infants were hospitalized in the neonatal hospital ward in the same manner as preterm infants whose parents elected not to participate in the study. The infants were randomly assigned to one of two treatment groups: the study product-InsuMealTM as a test group and Placebo supplement as a control group. […] From study day 1, the infants in the test group received the InsuMealTM additive mixed with the ready to feed (RTF) preterm […] formula and the control group received a placebo supplement mixed with the same RTF preterm […] formula. Infant maturation and growth was further assessed by the number of hospitalization days required until the preterm infant could be discharged.

preterm infants [5] = settings: oral, 4 to 28 days of age, 4 U/kg/day; cited from earlier work
newborn miniature pigs = settings: oral administration of 85 mU/ml; cited from earlier work

**Q.** With “insulin: polypeptide hormone; human insulin administered orally to infants, within infant formula” as the substance, how does the “Effect on head circumference relative to the expected growth” value (low birth weight infants [1]) read?
**A.** 17.6%

**Q.** What about the “Effect on length relative to the expected growth” value (low birth weight infants [1]) of the same substance?
**A.** 8.1%

**Q.** What about the “Effect on weight relative to the expected growth” value (low birth weight infants [1]) of the same substance?
**A.** 18.1%

**Q.** And the Adverse events (low birth weight infants [2]; follow up to 6 months)?
**A.** No deleterious effects; also recorded: no adverse events were observed

**Q.** What about the Anti-insulin antibodies (low birth weight infants [2]; human, in vivo) of the same substance?
**A.** did not stimulate the production of anti-insulin antibodies

**Q.** And the Hypoglycemia (low birth weight infants [2]; human, in vivo)?
**A.** did not cause hypoglycemia

**Q.** What about the “Number of days to achieve complete enteral feeding (>=150 ml/Kg/day), Mean” value (preterm infants [3]) of the same substance?
**A.** 6.4 days

**Q.** And the “Number of days to discharge, Mean” value (preterm infants [4]; all infants, control 33.6, P-value=0.2192)?
**A.** 28.8 days

**Q.** And the “Number of days to discharge, Mean” value (preterm infants [4]; infant birth weight < 1300 gr, control 47.0, P value=0.0447)?
**A.** 35.8 days

**Q.** What about the “Hypoglycaemia or other adverse effects” value (preterm infants [5]) of the same substance?
**A.** without inducing hypoglycaemia or other adverse effects

**Q.** And the Lactase activity (preterm infants [5])?
**A.** increased lactase activity

**Q.** What about the “Intestine ileal mass and lactase activity” value (newborn miniature pigs) of the same substance?
**A.** increased
